From patent US6641802B2, “Amino acid compounds and photoprotecting compositions comprised thereof” (Societe L'Oreal S.A., priority 2000, dated 2003)

Columns and labels:
[1] = UV absorption spectrum of the compound as a 5% dispersion in liquid petrolatum (total transmission and reflection, spectrophotometer with integrating sphere); format: physicochemical; conditions: 60 μm film
Description: The UV absorption spectrum of the compound was measured as a 5% dispersion in liquid petrolatum. The total transmission and reflection of the dispersion was determined on a 60 μm film with a spectrophotometer equipped with an integrating sphere.
The UV absorption spectrum of the compound was measured as a 5% dispersion in liquid petrolatum. The total transmission and reflection of the dispersion was determined on a 60 μm film with a spectrophotometer equipped with an integrating sphere (8 trials).

N[C@@H](CCCCNC(=O)C=Cc1ccccc1)C(=O)O [Example 1, N^ε-cinnamoyl-L-lysine]
absorption maximum [1]: 260 nm | shoulder (first shoulder) [1]: 305 nm | optical density at 310 nm [1]: 0.8 | melting point: > 260 °C

COc1ccc(C=CC(=O)NCCCCC(N)C(=O)O)cc1 (centres unmarked) [Example 2]
absorption maximum [1]: 300 nm | shoulder (first shoulder) [1]: 320 nm | optical density at 310 nm [1]: 0.4 | melting point: > 260 °C
